According to ChEMBL document CHEMBL4118109, “A combination of 19F NMR and surface plasmon resonance for site-specific hit selection and validation of fragment molecules that bind to the ATP-binding site of a kinase” (Bioorg Med Chem, 2018):
Active and inactive are the calls of the source. The calls are words filed in the database; no cut-off is given here.

Key:
[1] = target: T1, Mitogen-activated protein kinase 1 (Homo sapiens, UniProt P28482); experiment: Binding affinity to ATP-binding site of ERK2 (unknown origin) assessed as reduction in signal intensity in absence of competitor by 19F NMR spectroscopy; set-up: concentration or dose not given beside the values
[2] = target: T1, Mitogen-activated protein kinase 1; experiment: Binding affinity to ATP-binding site of ERK2 (unknown origin) assessed as reduction in signal intensity in presence of FR180204 at 1 mM by competitive surface plasmon resonance method; set-up: scale not given: the % may be the effect or the level left
[3] = target: T1, Mitogen-activated protein kinase 1; experiment: Binding affinity to ATP-binding site of ERK2 (unknown origin) assessed as reduction in signal intensity by 19F NMR spectroscopy; set-up: concentration or dose not given beside the values
[4] = target: T1, Mitogen-activated protein kinase 1; experiment: Binding affinity to ATP-binding site of ERK2 (unknown origin) by surface plasmon resonance method
[5] = target: T1, Mitogen-activated protein kinase 1; experiment: Binding affinity to ATP-binding site of ERK2 (unknown origin) assessed as reduction in signal intensity in presence of L100919 at 1 mM by competitive surface plasmon resonance method; set-up: scale not given: the % may be the effect or the level left
[6] = target: T1, Mitogen-activated protein kinase 1; experiment: Binding affinity to ATP-binding site of ERK2 (unknown origin) assessed as reduction in signal intensity in presence of […] by competitive 19F NMR spectroscopy; set-up: concentration or dose not given beside the values
[7] = target: T1, Mitogen-activated protein kinase 1; experiment: Binding affinity to ATP-binding site of ERK2 (unknown origin) assessed as reduction in signal intensity in presence of L100919 by competitive 19F NMR spectroscopy; set-up: concentration or dose not given beside the values
[8] = target: T1, Mitogen-activated protein kinase 1; experiment: Binding affinity to ATP-binding site of ERK2 (unknown origin) by isothermal titration calorimetry

T1 sequence (P28482 whole entry): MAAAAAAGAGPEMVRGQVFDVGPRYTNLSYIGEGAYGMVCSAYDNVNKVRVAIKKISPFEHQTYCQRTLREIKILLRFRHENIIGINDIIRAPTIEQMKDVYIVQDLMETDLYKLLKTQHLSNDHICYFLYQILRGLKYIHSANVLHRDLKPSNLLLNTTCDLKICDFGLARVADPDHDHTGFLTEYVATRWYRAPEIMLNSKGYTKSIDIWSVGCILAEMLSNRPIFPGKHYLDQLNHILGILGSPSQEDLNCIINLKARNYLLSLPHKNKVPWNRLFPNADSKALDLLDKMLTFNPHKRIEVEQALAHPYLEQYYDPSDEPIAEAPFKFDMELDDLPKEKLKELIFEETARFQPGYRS

| Structure (SMILES) | Activity [1] | Activity [2] | Activity [3] | Kd [4] | Activity [5] | Activity [6] | Activity [7] | Kd [8] |
| --- | --- | --- | --- | --- | --- | --- | --- | --- |
| FC(F)(F)c1ccnc(NC2CCNCC2)c1 | 9% | 20% | 11% | 989 µM | – | – | – | – |
| O=C1c2cccc(F)c2CN1[C@H]1CCCNC1 | 22% | 31% | 32% | > 1000 µM | 26% | -1% | 8% | – |
| NCc1cn(Cc2ccccc2C(F)(F)F)cn1 | – | – | inactive | > 1000 µM | – | – | – | – |
| O=C1c2ccc(F)cc2CN1[C@H]1CCCNC1 | 67% | – | 66% | > 1000 µM | – | 2% | 8% | – |
| CC(C)(C)OC(=O)N1CCC(CN)(Cc2ccc(C(F)(F)F)cc2)CC1 | 0% | – | 32% | – | – | – | – | – |
| Nc1c(F)cccc1N1CCCCC1 | 17% | 10% | 31% | – | 17% | 7% | 12% | – |
| Fc1ccc2[nH]cc(CC3CCOCC3)c2c1 | 30% | – | 28% | 929 µM | – | 19% | 20% | 410 µM |
| Fc1ccc2[nH]cc(C3CCCNC3)c2c1 (centres undefined) | 20% | – | 10% | > 1000 µM | – | 9% | 9% | – |
| Nc1ccc2nc(-c3ccc(F)cc3)nn2c1 | 26% | – | 43% | > 1000 µM | – | 15% | 24% | – |
| CC(C)(C)OC(=O)N1CCC2(CC1)C(=O)Nc1ccc(F)cc12 | 45% | – | 39% | – | – | 13% | 15% | – |
| NC1CCN(c2cccc(F)c2[N+](=O)[O-])CC1 | 10% | – | 39% | > 1000 µM | – | – | – | – |
| Nc1cnc2c(C(F)(F)F)cnn2c1 | -12% | 23% | 33% | – | 19% | – | – | – |
| N[C@H]1CC[C@H](N2Cc3c(F)cccc3C2=O)CC1 | 9% | 15% | 41% | 495 µM | 12% | – | – | – |
| Fc1cccc2c1CC1(CCOCC1)CN2 | 20% | – | 29% | – | – | 14% | 16% | – |
| CC(C)(C)OC(=O)N1CCC(Cc2cccc(C(F)(F)F)c2)(C(=O)O)CC1 | 30% | – | 26% | > 1000 µM | – | 23% | 25% | – |
| O=C1c2ccc(F)cc2CN1C1CCNCC1 | 7% | – | 13% | > 1000 µM | – | – | – | – |
| CC(C)(C)OC(=O)N1CCC(CN)(Cc2cccc(C(F)(F)F)c2)CC1 | 9% | – | 26% | > 1000 µM | – | – | – | – |
| N[C@H]1CC[C@H](N2Cc3cc(F)ccc3C2=O)CC1 | – | – | inactive | – | – | – | – | – |
| NCc1cn(Cc2ccccc2F)cn1 | – | – | inactive | – | – | – | – | – |
| O=C(O)c1ccc2nc(-c3ccccc3F)nn2c1 | 35% | 14% | 47% | > 1000 µM | 12% | 17% | 24% | – |
| Fc1cccc(-c2nnc3ccc(Br)cn23)c1 | 49% | 12% | 54% | > 1000 µM | – | 16% | 20% | – |
| Nc1cnc(Nc2ccc(C(F)(F)F)cc2)nc1 | 26% | 14% | 40% | > 1000 µM | – | 7% | 5% | – |
| FC(F)(F)c1cnn2cc(Br)cnc12 | 22% | – | 33% | – | – | -4% | 5% | – |
| Fc1ccc2c(CC3CCOCC3)c[nH]c2c1 | 24% | 25% | 36% | > 1000 µM | – | 22% | 23% | – |
| CC(C)(C)OC(=O)N[C@H]1CCN(c2ncccc2[N+](=O)[O-])C1 | 2% | – | 20% | > 1000 µM | – | – | – | – |
| CCOc1cc(N)cc(C(F)(F)F)c1 | – | – | – | > 1000 µM | 17% | – | – | – |
| Fc1ccc2[nH]cc(C3CCOCC3)c2c1 | 16% | – | 14% | > 1000 µM | 10% | 10% | 14% | – |
| COCCCNc1ccc(F)cc1[N+](=O)[O-] | 15% | – | 29% | – | – | 10% | 14% | – |
